From US20100166854A1, “ELECTROSPUN MATRICES FOR DELIVERY OF HYDROPHILIC AND LIPOPHILIC COMPOUNDS” (priority 2006, published 2010)
Where a name gives a salt, the structure may show the parent alone.

Key:
[1] = Drug release from electrospun PLGA or PLLA fibers in Franz diffusion cells (Example 2); assay type: physicochemical; conditions: PBS 37° C.
Protocol: Poly(lactide-co-glycolide) (50:50) (PLGA) or poly(L-lactide) (PLLA) was dissolved in hexafluoroisopropanol (HFIP) and gently shaken for 3 hours till the polymer was completely dissolved. To this a solution of LH or mupirocin in HFIP was slowly added without any visible precipitation and shaken. The homogeneous drug/polymer solution was then electrospun as per the following parameters on a rotating mandrel. Differential Scanning Calorimetry (DSC) was conducted on the fibers to study drug inclusion. The dried scaffolds were sectioned into uniform weight discs and placed into Franz diffusion cells (Permegear Inc., Bethlehem, Pa.) with phosphate buffered saline at 37° C. rotated at 600 rpm. Samples were withdrawn at specific times and analyzed by HPLC. An equivalent amount of fresh PBS was replaced each time.

[2] = test system: Staphylococcus aureus ATCC 25923; conditions: 5 μg mupirocin disc, interpretative criteria; cited from earlier work
[3] = test system: mupirocin-sensitive bacteria; conditions: all the strains of mupirocin-sensitive bacteria; cited from earlier work

Q: For `CCN(CC)CC(=O)Nc1c(C)cccc1C` [LH, Lidocaine hydrochloride], which LH released ([1]; within 48 hrs, PLGA 20% fibers, LH 100% w/v of polymer) is on record?
A: 92%

Q: What about the LH burst release ([1]; within the first hour, PLGA 20% fibers, LH 100% w/v of polymer) of the same compound?
A: 80%

Q: For `C/C(=C\C(=O)OCCCCCCCCC(=O)O)C[C@@H]1OC[C@H](C[C@@H]2O[C@H]2[C@@H](C)[C@H](C)O)[C@@H](O)[C@H]1O` [mupirocin], which “zone diameter considered acceptable” value [2] is on record?
A: 22 to 27 mm

Q: What about the mupirocin cumulative release ([1]; in the next 72 hours, PLLA 15% fibers, mupirocin 25% w/v of polymer) of the same compound?
A: 70 wt %

Q: What about the “mupirocin initial burst release” value ([1]; within an hour, PLLA 15% fibers, mupirocin 25% w/v of polymer) of the same compound?
A: 36 wt %

Q: And the MIC [3]?
A: 0.06 to 0.5 µg/mL
